{"source": "patent US8686016B2", "about": "“Schweinfurthins and uses thereof” (The United States of America, as represented by the …, priority 2009, dated 2014)", "key": {"[1]": {"system": "primary astrocytes from wt, Nf1−/+, and NPcis mice", "assay": "XTT cell proliferation assay, primary astrocytes", "assay_type": "cell-based, mouse", "conditions": "for inhibition of proliferation: XTT", "method": "(§1) XTT Cell Proliferation Assay: Cells were seeded into 96-well plates at a density of 2,000 cells/well and allowed to reattach overnight. Cells were treated with SA, synthetic analogs, camptothecin (NCI Chemotherapeutics Repository, Md., USA), or DMSO control at the indicated concentrations continuously for 48 hours followed by assay in the 96-well plate for relative viable cell number using the dye […] (XTT) and a Wallac-Victor 2 plate reader (Perkin-Elmer, Waltham, Mass., USA). Absorbance was determined at 450 nm with 650 nm as a reference reading. Primary astrocytes were additionally assayed at a 96 hour time point.\nCell culture: Primary astrocytes were prepared as described previously (Hawes et al., J. Biomol. Screen, 2008, 13:795-803) from 1 day old neonatal brains collected from wt, Nf1−/+, and Nf1−/+; Trp53−/+ cis mice."}, "MPNST K16561 cells": {"system": "MPNST K16561 cells", "assay": "XTT cell proliferation assay, K16561", "assay_type": "cell-based, mouse", "method": "Establishment of NPcis MPNST cell lines: Mice were euthanized by CO2 asphyxiation and tumors were dissected. The tumor volume was measured. The tumor was then cut in half, and ½ fixed in 4% PFA. The other half was rinsed, then cut into 24 pieces of approximately equal size. Each piece was diced with a razor blade and placed in 1 well of a 24 well plate, along with 625 μL of Triple Express (Gibco, Grand Island, N.Y., USA) and 5 μL of recombinant DNAse (Roche, Indianapolis, Ind., USA). Tumors were triturated, then incubated at 37° C. in a 5% CO2 incubator for 2-5 hours, with an additional trituration halfway through incubation time. At the end of the incubation, tumor pieces were triturated again, and suspended cells were transferred to 1.5 mL eppendorf tubes. […] Both plates were monitored for cell growth, grown up to 10 cm plates, and frozen down in 10% DMSO. […]\nas §1, with “Absorbance was determined at 450 nm with 650 nm as a reference reading. Primary astrocytes were additionally assayed at a 96 hour time point.” left out"}}, "note": "“Also recorded” adds a separate entry of the source."}
{"smiles": "CC(C)=CCC/C(C)=C/Cc1c(O)cc(/C=C/c2cc(O)c3c(c2)C[C@@H]2C(C)(C)[C@H](O)[C@H](O)C[C@@]2(C)O3)cc1O", "note": "[SA, Schweinfurthin A]", "values": [{"measurement": "inhibition of proliferation", "setting": "[1]; 48 hours", "result": "does not inhibit; also recorded: are not; also recorded: resistant"}, {"measurement": "inhibition of proliferation", "setting": "[1]; 96 hrs continuous treatment", "result": "resistant"}, {"measurement": "growth inhibition", "setting": "[1]; SA concentrations several log-fold higher than the GI50 for KR158", "result": "≤ 40", "unit": "%"}, {"measurement": "inhibition of Nf1 heterozygous cells", "setting": "[1]; at concentrations of 1 μM", "result": "no inhibition"}, {"measurement": "inhibition of proliferation (percent viability versus control)", "setting": "MPNST K16561 cells", "result": "dose dependent inhibition of proliferation; also recorded: sensitive"}]}
